# According to patent US20200121677A1, “SUBSTITUTED 6,7-DIHYDROPYRAZOLO[1,5-a]PYRAZINES AS NEGATIVE ALLOSTERIC MODULATORS OF MGLUR2 RECEPTORS” (Janssen Pharmaceutica NV, priority 2014, published 2020):
# Read-outs that look alike come from different tables or passages of the source.
# How the values were obtained:
# Male Wiga Wistar rats = experiment: Reversal of LY-404039-induced decrease of palpebral opening in apomorphine-challenged rats; format: in vivo, rat; conditions: rats, route PO (route cell empty for Co. 88 and 84); for ED50: Rattus norvegicus, read-out: ED50 APO LY-404039 (Reversal of LY-404039-induced decrease of palpebral opening in apomorphine challenged rats)
# Procedure: 1) Reversal of LY-404039-Induced Decrease of Palpebral Opening in Apomorphine-Challenged Rats.
# Male Wiga Wistar rats (Crl:WI; Charles River Germany; 220±40 g) were housed under standard laboratory conditions (21±2° C.; 50-65% relative humidity; light-dark cycle set at 12 h; lights on at 6.00 h) and fasted overnight prior to the start of the experiments (tap water remained available ad libitum). During the test period, they were housed in individual cages. Palpebral opening was scored every 5 min over the first hour after injection of apomorphine (1.0 mg/kg, i.v.) in animals either pretreated or not pretreated with LY-404039 (2.5 mg/kg, s.c.) at 1 h prior to the apomorphine injection. The animals were also pretreated with test compound or solvent at a predefined interval before apomorphine challenge. The score system was: (5) exophthalmos, (4) wide open, (3) open for three-quarters, (2) half open, (1) open for one-quarter, (0) closed. The scores for palpebral opening were cumulated over the 60-min observation period.
# rats = experiment: Reversal of the effect of the mGluR2 PAM JNJ-42153605-induced inhibition of scopolamine-induced hyperlocomotion; format: in vivo, rat; conditions: rats, route PO, criterion total distance >1500 cm; for ED50: Rattus norvegicus, read-out: ED50 SCOP JNJ-42153605 (Reversal of the effect of JNJ 42153605 on scopolamine-induced hyperlocomotion)
# Outline: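 Rats dosed with test compound 60 min pre-recording, challenged with JNJ-42153605 (20 mg/kg, i.v.) at 30 min and scopolamine (0.16 mg/kg, i.v.) just before recording. Total distance travelled over first 30 min video-tracked under 4–8 lux. All-or-none reversal criterion: total distance >1500 cm.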
# Wiga rats = experiment: Induction of mydriasis (pupil diameter, test 1 and test 2); format: in vivo, rat; conditions: route PO; for ED50: Rattus norvegicus
# Procedure: 3) Induction of Mydriasis
# The pupil diameter of Wiga rats was measured with a microscopic micrometer (1 unit=1/24 mm). Criteria for drug-induced effects: pupil diameter >25 units for mydriasis (in controls: 1.9%) 1 h post-administration of the test compound (test 1) or 1, 2 or 3 h post-administration of the test compound (test 2, wherein the maximum pupil diameter over the full 3 h period is reported).
# human mGlu2 receptor = human mGlu2 receptor (Homo sapiens, UniProt Q14416); experiment: [35S]GTPγS binding assay, mGluR2 negative allosteric modulation (membranes from CHO cells transfected with human mGlu2 receptor, glutamate ~EC80 60 μM); conditions: for IC50: GTPγS - hmGluR2 anGT pIC50, membranes with human mGlu2 receptor; for Emax: read-out: GTPγS - hmGluR2 anGT Emax, relative maximal effect: maximal % inhibition relative to the control glutamate response;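 for all read-outs here: membranes preincubated 30 min at 30 °C with compound plus glutamate, then [35S]GTPγS (0.1 nM) incorporation measured over another 30 min at 30 °C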
# Procedure: The [^35S]GTPγS binding assay is a functional membrane-based assay used to study G-protein coupled receptor (GPCR) function whereby incorporation of a non-hydrolysable form of GTP, [^35S]GTPγS (guanosine 5′-triphosphate, labelled with gamma-emitting ^35S), is measured. […] Here we describe the use of the [^35S]GTPγS binding assay using membranes from cells transfected with the human mGlu2 receptor and adapted from Schaffhauser et al. (Molecular Pharmacology, 2003, 4:798-810) for the detection of the negative allosteric modulation (NAM) properties of the compounds of this invention.
# CHO-cells were cultured to pre-confluence and stimulated with 5 mM butyrate for 24 h. Cells were then collected by scraping in PBS and cell suspension was centrifuged (10 min at 4000 RPM in benchtop centrifuge). Supernatant was discarded and pellet gently resuspended in 50 mM Tris-HCl, pH 7.4 by mixing with an Ultra Turrax homogenizer. The suspension was centrifuged at 12,400 RPM (Sorvall F14S-6x250Y) for 10 minutes and the supernatant discarded. The pellet was homogenized in 5 mM Tris-HCl, pH 7.4 using an Ultra Turrax homogenizer and centrifuged again (13,000 RPM, 20 min, 4° C.). The final pellet was resuspended in 50 mM Tris-HCl, pH 7.4 and stored at −80° C. in appropriate aliquots before use. Protein concentration was determined by the Bradford method (Bio-Rad, USA) with bovine serum albumin as standard.
# Measurement of mGluR2 negative allosteric modulatory activity of test compounds was performed as follows. Test compounds and glutamate were diluted in assay buffer containing 10 mM HEPES acid, 10 mM HEPES salt, pH 7.4, 100 mM NaCl, 3 mM MgCl2 and 10 μM GDP. Human mGlu2 receptor-containing membranes were thawed on ice and diluted in assay buffer supplemented with 18 μg/ml saponin. Membranes were pre-incubated with compound together with a predefined (˜EC80) concentration of glutamate (60 μM) for 30 min at 30° C. After addition of [^35S]GTPγS (f.c. 0.1 nM), assay mixtures were shaken briefly and further incubated to allow [^35S]GTPγS incorporation on activation (30 minutes, 30° C.). Final assay mixtures contained 7 μg of membrane protein in 10 mM HEPES acid, 10 mM HEPES salt, pH 7.4, 100 mM NaCl, 3 mM MgCl2, 10 μM GDP and 10 μg/ml saponin. Total reaction volume was 200 μl. Reactions were terminated by rapid filtration through Unifilter-96 GF/B plates (Perkin Elmer, Massachusetts, USA) using a 96-well filtermate universal harvester. Filters were washed 6 times with ice-cold 10 mM NaH2PO4/10 mM Na2HPO4, pH 7.4. Filters were then air-dried, and 30 μl of liquid scintillation cocktail (Microscint-O) was added to each well. Membrane-bound radioactivity was counted in a Topcount.
# Data were calculated as % of the control glutamate response, defined as the response that is generated upon addition of an EC80-equivalent concentration of glutamate.
# [1] = pupil diameter >25 units, maximum over 1, 2 or 3 h post-administration, read-out: ED50 MYD Test 2 (Induction of mydriasis)
# [2] = glutamate ~EC80 (60 μM), pIC50 = -log IC50 (M)
# Chain of human mGlu2 receptor (Q14416 19-872): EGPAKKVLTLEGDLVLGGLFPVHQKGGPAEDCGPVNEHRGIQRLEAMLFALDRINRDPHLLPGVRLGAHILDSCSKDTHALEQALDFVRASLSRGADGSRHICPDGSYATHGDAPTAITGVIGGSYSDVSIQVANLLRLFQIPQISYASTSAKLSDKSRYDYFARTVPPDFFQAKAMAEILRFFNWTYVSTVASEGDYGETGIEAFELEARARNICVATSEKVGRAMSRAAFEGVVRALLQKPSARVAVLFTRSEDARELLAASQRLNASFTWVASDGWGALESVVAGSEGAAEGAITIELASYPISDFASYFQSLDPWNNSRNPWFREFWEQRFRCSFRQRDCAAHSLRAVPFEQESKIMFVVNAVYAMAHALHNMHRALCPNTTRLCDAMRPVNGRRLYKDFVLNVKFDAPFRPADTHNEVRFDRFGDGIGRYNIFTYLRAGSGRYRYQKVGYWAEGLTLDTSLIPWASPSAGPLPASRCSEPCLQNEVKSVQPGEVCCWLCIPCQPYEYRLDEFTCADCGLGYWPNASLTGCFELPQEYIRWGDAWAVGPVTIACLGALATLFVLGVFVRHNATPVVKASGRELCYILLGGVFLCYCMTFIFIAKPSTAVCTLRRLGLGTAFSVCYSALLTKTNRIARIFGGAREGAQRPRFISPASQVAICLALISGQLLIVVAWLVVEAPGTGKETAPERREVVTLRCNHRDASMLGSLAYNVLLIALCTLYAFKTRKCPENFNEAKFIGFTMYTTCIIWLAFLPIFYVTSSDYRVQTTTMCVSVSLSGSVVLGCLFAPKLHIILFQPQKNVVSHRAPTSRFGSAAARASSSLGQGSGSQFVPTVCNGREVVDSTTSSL
melting point,IC50 (human mGlu2 receptor; [2]),Emax (human mGlu2 receptor),"GTPγS - hmGluR2 anGT pIC50 (human mGlu2 receptor; membranes with human mGlu2 receptor, glutamate ~EC80 (60 μM), pIC50 = -log IC50 (M))",GTPγS - hmGluR2 anGT Emax (human mGlu2 receptor; relative maximal effect: maximal % inhibition relative to the control glutamate response),SMILES,ED50 (Male Wiga Wistar rats),ED50 (rats),ED50 (Wiga rats; [1]),"ED50 (Wiga rats; pupil diameter >25 units 1 h post-administration, read-out: ED50 MYD Test 1 (Induction of mydriasis))",ED50 APO LY-404039 (Reversal of LY-404039-induced decrease of palpebral opening in apomorphine challenged rats) (Male Wiga Wistar rats),ED50 SCOP JNJ-42153605 (Reversal of the effect of JNJ 42153605 on scopolamine-induced hyperlocomotion) (rats),"ED50 MYD Test 2 (Induction of mydriasis) (Wiga rats; pupil diameter >25 units, maximum over 1, 2 or 3 h post-administration)"
167.35 °C,1.91e-09 M,111%,,,"C[C@H]1CN(c2ccc(C(F)(F)F)cc2)C(=O)c2c(C(=O)Nc3cccnc3)cnn21 [compound 1, (7S)-7-methyl-4-oxo-N-(3-pyridyl)-5-[4-(trifluoromethyl)phenyl]-6,7-dihydropyrazolo[1,5-a]pyrazine-3-carboxamide]",0.39 mg/kg,0.2 mg/kg,> 40 mg/kg,,,,
215 °C,3.02e-09 M,105%,,,Cc1cc(NC(=O)c2cnn3c2C(=O)N(c2ccc(C(F)(F)F)cc2)C[C@@H]3C)ccn1 [compound 5],0.32 mg/kg,1.27 mg/kg,,> 10 mg/kg,,,
246.7 °C,1.12e-08 M,103%,,,C[C@H]1CN(c2ccc(C(F)(F)F)cc2)C(=O)c2c(C(=O)Nc3ccccn3)cnn21 [compound 9],> 2.5 mg/kg,0.32 mg/kg,> 10 mg/kg,,,,
,,,8.8,105%,Cc1cc(NC(=O)c2cnn3c2C(=O)N(c2ccc(Cl)c(Cl)c2)C[C@@H]3C)cc(C)n1 [compound 118],,,,,>0.63 mg/kg,>0.63 mg/kg,1.3 mg/kg
